The experiment has as its system Raji cells. Briefly: Annexin V-FITC/PI apoptosis assay (FACS). The format is cell-based, human. The following applies: 72 h. The text has this:
Figure 3 PI3Kδ inhibition led to blockade of B cell leukemia cells proliferation via induction of cell cycle arrest and apoptosis Raji cells treated with X-370 for indicated times and at serial diluted concentrations were subjected to Annexin V-FITC/PI staining (A) and PI staining (B) and FACS analysis to show cell apoptosis and cell cycle distribution respectively. (C) X-370 inhibited proliferation of human leukemia primary cells. Freshly isolated human primary mononuclear cells from bone marrow samples of patients were treated with X-370 for 72 h and cell viability was assayed using CCK-8 assay. IC50s of each sample were plotted where 10 μM was assigned to specimens with IC50 >10 μM. Each symbol represents an individual patient sample. […]
Apoptosis was measured with annexin V–fluorescein isothiocyanate (FITC) /Propidium iodide (PI) kit (KeyGEN Biotech, Nanjing, China) as previously described. Fluorescence was acquired with a FACSCalibur instrument (BD Biosciences, CA) and analyzed using BD CellQuest Pro software.

Regarding `O=C(N1CCCC1)N1CCC(n2cnc3c(-n4c(C(F)F)nc5ccccc54)nc(N4CCOCC4)nc32)CC1` [X-370], the “concentration at which apoptotic cells were detectable” value is at least 5 µM. Under “10 μM”, the “cells that underwent apoptosis” value is “about 28%”.

Source of the values: paper PMC4279406, “Simultaneous targeting of PI3Kδ and a PI3Kδ-dependent MEK1/2-Erk1/2 pathway for therapy in pediatric B-cell acute lymphoblastic leukemia” (Oncotarget, 2014).
